In ChEMBL document CHEMBL1130774, “Pyrazoles, 1,2,4-triazoles, and tetrazoles as surrogates for cis-amide bonds in boronate ester thrombin inhibitors” (Bioorg Med Chem Lett, 1998):

Tests used:
[1] = target: Coagulation factor X (Homo sapiens, UniProt P00742); assay: Inhibition against human coagulation factor Xa
[2] = target: Serine protease 1 (Homo sapiens, UniProt P07477); assay: Inhibition of trypsin
[3] = target: T1, Prothrombin (Homo sapiens, UniProt P00734); assay: Inhibition against human thrombin
[4] = target: T2, Coagulation factor VII (Homo sapiens, UniProt P08709); assay: Inhibition against human Coagulation factor VII
T2 sequence (P08709 whole entry): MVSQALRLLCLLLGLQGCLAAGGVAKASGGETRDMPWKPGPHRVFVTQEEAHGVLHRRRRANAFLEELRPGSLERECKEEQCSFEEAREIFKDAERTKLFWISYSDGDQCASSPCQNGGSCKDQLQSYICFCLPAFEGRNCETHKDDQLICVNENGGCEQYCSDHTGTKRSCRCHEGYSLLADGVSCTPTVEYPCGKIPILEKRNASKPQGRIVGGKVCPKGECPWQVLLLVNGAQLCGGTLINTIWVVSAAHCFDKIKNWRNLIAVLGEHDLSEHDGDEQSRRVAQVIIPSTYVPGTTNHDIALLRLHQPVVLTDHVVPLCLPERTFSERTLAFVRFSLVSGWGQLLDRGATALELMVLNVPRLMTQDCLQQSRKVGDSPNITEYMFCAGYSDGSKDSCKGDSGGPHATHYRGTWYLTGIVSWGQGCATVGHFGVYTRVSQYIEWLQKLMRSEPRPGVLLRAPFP

[5] = Compound was tested for inhibition against tissue factor.
[6] = Compound was tested for inhibition against Coagulation factor I
[7] = target: T1, Prothrombin; assay: (§1) Concentration necessary to double the time required for clot formation induced by the addition of 4 NIH u/mL (final concentration) bovine thrombin.; assay type: functional
[8] = target: T1, Prothrombin; assay: Concentration necessary to double the time required for clot formation induced by the addition of 4 NIH u/mL(final concentration) bovine thrombin.; assay type: functional
[9] = as §1; assay type: functional

Sequence of Coagulation factor X (P00742 41-179 limits assumed): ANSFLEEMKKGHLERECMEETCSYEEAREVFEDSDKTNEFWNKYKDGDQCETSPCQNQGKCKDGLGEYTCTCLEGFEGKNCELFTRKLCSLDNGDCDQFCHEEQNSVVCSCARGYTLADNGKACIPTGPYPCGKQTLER
Sequence of Coagulation factor X (P00742 235-488 limits assumed): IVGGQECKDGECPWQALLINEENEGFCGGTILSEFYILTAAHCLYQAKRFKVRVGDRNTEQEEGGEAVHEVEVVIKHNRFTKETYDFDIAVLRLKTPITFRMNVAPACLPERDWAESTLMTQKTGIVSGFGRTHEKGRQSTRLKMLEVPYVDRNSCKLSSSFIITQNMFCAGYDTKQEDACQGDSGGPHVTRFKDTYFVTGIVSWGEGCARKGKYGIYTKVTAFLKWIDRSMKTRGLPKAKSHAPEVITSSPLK
Sequence of Serine protease 1 (P07477 whole entry): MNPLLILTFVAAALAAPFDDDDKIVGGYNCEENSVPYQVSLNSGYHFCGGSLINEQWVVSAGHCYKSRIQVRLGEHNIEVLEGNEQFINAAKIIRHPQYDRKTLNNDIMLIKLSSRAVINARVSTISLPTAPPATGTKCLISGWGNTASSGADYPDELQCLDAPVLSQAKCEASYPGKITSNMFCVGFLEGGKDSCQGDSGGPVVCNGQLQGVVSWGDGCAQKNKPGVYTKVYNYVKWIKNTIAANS

SMILES	Ki [1]	Ki [2]	Ki [3]	Ki [4]	Ki [5]	Ki [6]	Ki [7]	Ki [8]	Ki [9]
CC1(C)[C@@H]2C[C@H]3OB([C@H](CCCCN)NC(=O)Cn4nc(-c5cccc(N)c5)nc4Cc4ccccc4)O[C@@]3(C)[C@H]1C2	> 6 µM	0.0042 µM	0.15 µM	1.4 µM	–	–	–	–	–
CC(C)(C)OC(=O)/C=C/c1nc(Cc2ccccc2)n(CC(=O)N[C@@H](CCCCN)B2O[C@@H]3C[C@@H]4C[C@@H](C4(C)C)[C@]3(C)O2)n1	> 6 µM	0.036 µM	0.15 µM	2.7 µM	2.8 µM	–	–	–	–
CC(C)(C)CC(=O)NCc1nc(Cc2ccccc2)n(CC(=O)N[C@@H](CCCCN)B2O[C@@H]3C[C@@H]4C[C@@H](C4(C)C)[C@]3(C)O2)n1	4.3 µM	0.0027 µM	0.033 µM	> 3 µM	1.49 µM	–	–	–	–
CC1(C)[C@@H]2C[C@H]3OB([C@H](CCCCN)NC(=O)Cn4nc(CC#N)cc4CCc4ccccc4)O[C@@]3(C)[C@H]1C2	> 6 µM	0.035 µM	0.0046 µM	–	–	13 µM	–	–	–
CC1(C)[C@@H]2C[C@H]3OB([C@H](CCCCN)NC(=O)Cn4nc(CC(=O)O)nc4Cc4ccccc4)O[C@@]3(C)[C@H]1C2	> 6 µM	–	1.7 µM	> 14 µM	–	–	–	–	–
CC1(C)[C@@H]2C[C@H]3OB([C@H](CCCCN)NC(=O)Cn4nnnc4CCc4ccccc4)O[C@@]3(C)[C@H]1C2	–	–	0.033 µM	–	–	–	–	–	–
C[S+]([O-])Cc1nc(Cc2ccccc2)n(CC(=O)N[C@@H](CCCCN)B2O[C@@H]3C[C@@H]4C[C@@H](C4(C)C)[C@]3(C)O2)n1 (some centres not stated)	6 µM	0.0048 µM	0.047 µM	2.1 µM	3.6 µM	–	–	–	–
CC1(C)[C@@H]2C[C@H]3OB([C@H](CCCCN)NC(=O)Cn4nc(CS(C)(=O)=O)nc4Cc4ccccc4)O[C@@]3(C)[C@H]1C2	> 6 µM	0.0021 µM	0.011 µM	1.9 µM	2.7 µM	–	–	–	–
CC1(C)[C@@H]2C[C@H]3OB([C@H](CCCCN)NC(=O)Cn4nc(CC#N)nc4Cc4ccccc4)O[C@@]3(C)[C@H]1C2	> 6 µM	0.0056 µM	0.0035 µM	4.2 µM	–	–	0.5 µM	–	–
COC(=O)Cc1nc(Cc2ccccc2)n(CC(=O)N[C@@H](CCCCN)B2O[C@@H]3C[C@@H]4C[C@@H](C4(C)C)[C@]3(C)O2)n1	> 6 µM	–	0.085 µM	14 µM	–	–	–	–	–
CC(C)(C)OC(=O)CCc1nc(Cc2ccccc2)n(CC(=O)N[C@@H](CCCCN)B2O[C@@H]3C[C@@H]4C[C@@H](C4(C)C)[C@]3(C)O2)n1	0.76 µM	0.0014 µM	0.0055 µM	> 3 µM	0.67 µM	–	–	–	–
CC1(C)[C@@H]2C[C@H]3OB([C@H](CCCCN)NC(=O)Cn4nc(CNS(=O)(=O)C(F)(F)F)nc4Cc4ccccc4)O[C@@]3(C)[C@H]1C2	> 6 µM	> 1.2 µM	0.21 µM	> 3 µM	3.7 µM	–	–	–	–
CSCc1nc(Cc2ccccc2)n(CC(=O)N[C@@H](CCCCN)B2O[C@@H]3C[C@@H]4C[C@@H](C4(C)C)[C@]3(C)O2)n1	> 6 µM	0.0019 µM	0.065 µM	2.5 µM	–	–	–	4.5 µM	–
CC1(C)[C@@H]2C[C@H]3OB([C@H](CCCCN)NC(=O)Cn4nc(CNC=O)nc4Cc4ccccc4)O[C@@]3(C)[C@H]1C2	> 6 µM	0.0066 µM	0.033 µM	2.2 µM	2.7 µM	–	–	–	–
CC1(C)[C@@H]2C[C@H]3OB([C@H](CCCCN)NC(=O)Cn4nc(CO)nc4Cc4ccccc4)O[C@@]3(C)[C@H]1C2	> 6 µM	–	0.084 µM	7.7 µM	–	–	–	–	–
CC1(C)[C@@H]2C[C@H]3OB([C@H](CCCCN)NC(=O)Cn4nc(Cc5ccccc5)nc4Cc4ccccc4)O[C@@]3(C)[C@H]1C2	> 6 µM	–	0.041 µM	3.94 µM	–	–	–	–	–

SMILES	Ki [1]	Ki [2]	Ki [3]	Ki [4]	Ki [5]	Ki [6]	Ki [7]	Ki [8]	Ki [9]
CC1(C)[C@@H]2C[C@H]3OB([C@H](CCCCN)NC(=O)Cn4ncnc4CCc4ccccc4)O[C@@]3(C)[C@H]1C2	–	–	0.036 µM	–	–	–	–	–	–
CC1(C)[C@@H]2C[C@H]3OB([C@H](CCCCN)NC(=O)Cn4ncnc4Cc4ccccc4)O[C@@]3(C)[C@H]1C2	–	–	0.031 µM	–	–	–	–	–	2.5 µM
CC1(C)[C@@H]2C[C@H]3OB([C@H](CCCCN)NC(=O)Cn4nc(-c5ccccc5)nc4Cc4ccccc4)O[C@@]3(C)[C@H]1C2	–	–	0.173 µM	–	–	–	–	–	–
CC1(C)[C@@H]2C[C@H]3OB([C@H](CCCCN)NC(=O)Cn4nc(CC#N)nc4CCc4ccccc4)O[C@@]3(C)[C@H]1C2	> 6 µM	0.012 µM	0.0026 µM	> 3 µM	–	6.8 µM	–	–	–
CC1(C)[C@@H]2C[C@H]3OB([C@H](CCCCN)NC(=O)Cn4nc(CCC(=O)O)nc4Cc4ccccc4)O[C@@]3(C)[C@H]1C2	> 6 µM	0.0071 µM	0.23 µM	> 3 µM	> 10 µM	–	–	–	–
CC1(C)[C@@H]2C[C@H]3OB([C@H](CCCCN)NC(=O)Cn4nc(COCc5ccccc5)nc4Cc4ccccc4)O[C@@]3(C)[C@H]1C2	1.6 µM	–	0.0087 µM	1.5 µM	–	–	–	1.3 µM	–
CC1(C)[C@@H]2C[C@H]3OB([C@H](CCCCN)NC(=O)Cn4nc(CC#N)nc4Cc4cccc([N+](=O)[O-])c4)O[C@@]3(C)[C@H]1C2	> 6 µM	0.023 µM	0.0018 µM	> 3 µM	–	1.9 µM	–	–	–
CN(CC(=O)N[C@@H](CCCSC(=N)N)B(O)O)C(=O)CCc1ccccc1	–	–	0.0003 µM	–	–	–	–	–	–
Cc1nc(Cc2ccccc2)n(CC(=O)N[C@@H](CCCCN)B2O[C@@H]3C[C@@H]4C[C@@H](C4(C)C)[C@]3(C)O2)n1	> 6 µM	–	0.0086 µM	7.16 µM	–	–	–	6 µM	–
CC1(C)[C@@H]2C[C@H]3OB([C@H](CCCCN)NC(=O)Cn4nc(CC#N)nc4Cc4ccccc4[N+](=O)[O-])O[C@@]3(C)[C@H]1C2	4.9 µM	0.0084 µM	0.0008 µM	3 µM	–	2 µM	–	–	–
CCCc1nc(Cc2ccccc2)n(CC(=O)N[C@@H](CCCCN)B2O[C@@H]3C[C@@H]4C[C@@H](C4(C)C)[C@]3(C)O2)n1	> 6 µM	0.0023 µM	0.073 µM	2.4 µM	–	–	–	–	–
CC1(C)[C@@H]2C[C@H]3OB([C@H](CCCCN)NC(=O)Cn4nc(-c5cccc([N+](=O)[O-])c5)nc4Cc4ccccc4)O[C@@]3(C)[C@H]1C2	4.2 µM	–	0.085 µM	2.6 µM	–	–	–	–	–
CC(C)C(=O)NCc1nc(Cc2ccccc2)n(CC(=O)N[C@@H](CCCCN)B2O[C@@H]3C[C@@H]4C[C@@H](C4(C)C)[C@]3(C)O2)n1	> 6 µM	0.0096 µM	0.16 µM	> 3 µM	–	–	–	–	–
CC1(C)[C@@H]2C[C@H]3OB([C@H](CCCCN)NC(=O)Cn4ncnc4CCCc4ccccc4)O[C@@]3(C)[C@H]1C2	–	–	> 0.042 µM	–	–	–	–	–	–
CC1(C)[C@@H]2C[C@H]3OB([C@H](CCCCN)NC(=O)Cn4nc(Cc5nn[nH]n5)nc4Cc4ccccc4)O[C@@]3(C)[C@H]1C2	–	–	0.35 µM	–	–	–	–	–	–
